Laboratory results reported in patent EP2459551B1, “DIHYDROBENZOINDAZOLES” (Merck Sharp & Dohme B.V., priority 2009, dated 2011).
pEC50: −log10 of the molar value.

Molecular target: T1, human FSH receptor (Homo sapiens, UniProt P23945)
T1 sequence (P23945 18-695): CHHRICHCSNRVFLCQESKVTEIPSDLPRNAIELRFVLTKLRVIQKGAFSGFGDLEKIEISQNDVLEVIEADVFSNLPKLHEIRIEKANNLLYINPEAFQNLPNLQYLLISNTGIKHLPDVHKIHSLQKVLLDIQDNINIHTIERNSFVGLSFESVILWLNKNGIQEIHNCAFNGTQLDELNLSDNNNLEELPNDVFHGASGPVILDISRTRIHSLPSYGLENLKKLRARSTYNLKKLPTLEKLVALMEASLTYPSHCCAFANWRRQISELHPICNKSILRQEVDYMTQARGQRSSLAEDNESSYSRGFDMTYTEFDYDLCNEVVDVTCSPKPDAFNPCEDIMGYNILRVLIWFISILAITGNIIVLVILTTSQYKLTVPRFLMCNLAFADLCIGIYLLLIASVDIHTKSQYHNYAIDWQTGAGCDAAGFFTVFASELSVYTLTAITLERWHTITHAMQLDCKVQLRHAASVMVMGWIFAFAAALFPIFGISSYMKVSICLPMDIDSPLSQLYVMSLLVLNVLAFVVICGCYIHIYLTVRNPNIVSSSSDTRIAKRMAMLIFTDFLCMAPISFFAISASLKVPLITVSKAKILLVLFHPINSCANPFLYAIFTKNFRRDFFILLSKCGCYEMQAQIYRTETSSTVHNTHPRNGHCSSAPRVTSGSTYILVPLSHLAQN
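Also: CHO cells stably expressing human FSH receptor with CRE-driven firefly luciferase, luminescence read as counts per second after 4 h compound exposure in 1% DMSO.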

Experimental: Agonistic activity of compounds at the human FSH receptor expressed in CHO cells
Agonistic activity of the compounds at the human FSH receptor was determined in Chinese Hamster Ovary (CHO) cells stably transfected with the human FSH receptor and cotransfected with a cAMP responsive element (CRE)/promotor directing the expression of a firefly luciferase reporter gene. […] Cells (7,500 cells/well of a 384 well plate) were incubated in Dulbecco' minimal essential F12 modified medium (Invitrogen), supplemented with 1 µg/ml bovine insulin, 5 µg/ml human apotransferrin, 80 U/ml penicillin G and 80 µg/ml streptomycin with the test compounds (concentration between 0.0316 nM and 10.0 µM) in duplicate in a humidified atmosphere (95%) at 5-7% CO2 and 37°C. The final concentration of DMSO was 1%. After 4 hours of incubation, plates were allowed to adjust to room temperature for 1 hour. Then, Luclite (PerkinElmer) solution was added to the wells and cells were allowed to lyse for at least 1 hour at room temperature. Subsequently, luciferase activity was measured in a luminescence counter. The signal is expressed as counts per second (cps). The EC50 (concentration of the test compound that elicits half-maximal (50 %) luciferase stimulation compared to the compound's maximally attainable effect) and efficacy values (maximal effect of the test compound as percentage of the maximal effect of recombinant human FSH) of the compounds were determined using the software program MathIQ (version 2.0, ID Business Solutions Limited).

| Compound | pEC50 |
| --- | --- |
| COc1cc2c(cc1OC)-c1c(c(C(=O)N(C)C(C)(C)C)nn1-c1ccc(F)cc1)CC2 [Example 1e, N-tert-butyl-1-(4-fluorophenyl)-7,8-dimethoxy-N-methyl-4,5-dihydro-1H-benzo[g]indazole-3-carboxamide] | 5.00 to 6.00 |
| COc1cc2c(cc1OC)-c1c(c(C(=O)N3CCCN(C(C)=O)CC3)nn1-c1ccc(F)cc1)CC2 [Example 1f] | 5.00 to 6.00 |
| COc1cc2c(cc1OC)-c1c(c(C(=O)N3CCCN(C(=O)C4CCC4)CC3)nn1-c1ccc(F)cc1)CC2 [Example 1g] | 6.00 to 7.00 |
| COc1cc2c(cc1OC(C)C)-c1c(c(C(=O)N(C)C(C)(C)C)nn1-c1nc3ccccc3s1)CC2 [Example 4d, 1-(benzo[d]thiazol-2-yl)-N-tert-butyl-8-isopropoxy-7-methoxy-N-methyl-4,5-dihydro-1H-benzo[g]indazole-3-carboxamide] | 5.00 to 6.00 |
| COc1cc2c(cc1OC(C)C)-c1c(c(C(=O)N(C)C(C)(C)C)nn1-c1cccnc1)CC2 [Example 6b, N-tert-butyl-8-isopropoxy-7-methoxy-N-methyl-1-(pyridin-3-yl)-4,5-dihydro-1H-benzo[g]indazole-3-carboxamide] | 6.00 to 7.00 |
| C=CCc1cccc(-n2nc(C(=O)N(C)C(C)(C)C)c3c2-c2cc(OC(C)C)c(OC)cc2CC3)c1 [Example 7ca, 1-(3-allylphenyl)-N-tert-butyl-8-isopropoxy-7-methoxy-N-methyl-4,5-dihydro-1H-benzo[g]indazole-3-carboxamide] | 5.00 to 6.00 |
| C=C(C)c1cccc(-n2nc(C(=O)N(C)C(C)(C)C)c3c2-c2cc(OC(C)C)c(OC)cc2CC3)c1 [Example 7cb, N-tert-butyl-8-isopropoxy-7-methoxy-N-methyl-1-(3-(prop-1-en-2-yl)phenyl)-4,5-dihydro-1H-benzo[g]indazole-3-carboxamide] | 5.00 to 6.00 |
| C=Cc1cccc(-n2nc(C(=O)N(C)C(C)(C)C)c3c2-c2cc(OC(C)C)c(OC)cc2CC3)c1 [Example 7cc, N-tert-butyl-8-isopropoxy-7-methoxy-N-methyl-1-(3-vinylphenyl)-4,5-dihydro-1H-benzo[g]indazole-3-carboxamide] | 6.00 to 7.00 |
| CCc1cccc(-n2nc(C(=O)N(C)C(C)(C)C)c3c2-c2cc(OC(C)C)c(OC)cc2CC3)c1 [Example 7cd, N-tert-butyl-1-(3-ethylphenyl)-8-isopropoxy-7-methoxy-N-methyl-4,5-dihydro-1H-benzo[g]indazole-3-carboxamide] | 6.00 to 7.00 |
| COc1cc2c(cc1OC(C)C)-c1c(c(C(=O)N(C)C(C)(C)C)nn1-c1cccc(C3CC3)c1)CC2 [Example 7cf, N-tert-butyl-1-(3-cyclopropylphenyl)-8-isopropoxy-7-methoxy-N-methyl-4,5-dihydro-1H-benzo[g]indazole-3-carboxamide] | 6.00 to 7.00 |
| COc1cc2c(cc1OC(C)C)-c1c(c(C(=O)N(C)C(C)(C)C)nn1-c1cccc([N+](=O)[O-])c1)CC2 [Example 8ca, N-tert-butyl-8-isopropoxy-7-methoxy-N-methyl-1-(3-nitrophenyl)-4,5-dihydro-1H-benzo[g]indazole-3-carboxamide] | 5.00 to 6.00 |
| COc1cc2c(cc1OC(C)C)-c1c(c(C(=O)N(C)C(C)(C)C)nn1-c1cccc(F)c1)CC2 [Example 8cb, N-tert-butyl-1-(3-fluorophenyl)-8-isopropoxy-7-methoxy-N-methyl-4,5-dihydro-1H-benzo[g]indazole-3-carboxamide] | 6.00 to 7.00 |
| COc1cccc(-n2nc(C(=O)N(C)C(C)(C)C)c3c2-c2cc(OC(C)C)c(OC)cc2CC3)c1 [Example 8cc, N-tert-butyl-8-isopropoxy-7-methoxy-1-(3-methoxyphenyl)-N-methyl-4,5-dihydro-1H-benzo[g]indazole-3-carboxamide] | 6.00 to 7.00 |
| COc1cc2c(cc1OC(C)C)-c1c(c(C(=O)N(C)C(C)(C)C)nn1-c1cccc(C)c1)CC2 [Example 8cd, N-tert-butyl-8-isopropoxy-7-methoxy-N-methyl-1-m-tolyl-4,5-dihydro-1H-benzo[g]indazole-3-carboxamide] | 6.00 to 7.00 |
| COc1cc2c(cc1OC(C)C)-c1c(c(C(=O)N(C)C(C)(C)C)nn1-c1ccccc1Br)CC2 [Example 9ca, 1-(2-bromophenyl)-N-tert-butyl-8-isopropoxy-7-methoxy-N-methyl-4,5-dihydro-1H-benzo[g]indazole-3-carboxamide] | 6.00 to 7.00 |
| CC=Cc1ccccc1-n1nc(C(=O)N(C)C(C)(C)C)c2c1-c1cc(OC(C)C)c(OC)cc1CC2 [Example 9cb, 1-(2-(2-methylvinyl)-phenyl)-N-tert-butyl-8-isopropoxy-7-methoxy-N-methyl-4,5-dihydro-1H-benzo[g]indazole-3-carboxamide] | 5.00 to 6.00 |
| C=Cc1ccccc1-n1nc(C(=O)N(C)C(C)(C)C)c2c1-c1cc(OC(C)C)c(OC)cc1CC2 [Example 9cc, N-tert-butyl-8-isopropoxy-7-methoxy-N-methyl-1-(2-vinylphenyl)-4,5-dihydro-1H-benzo[g]indazole-3-carboxamide] | 5.00 to 6.00 |
| COc1cc2c(cc1OC(C)C)-c1c(c(C(=O)N(C)C(C)(C)C)nn1-c1ccccc1-c1ccoc1)CC2 [Example 9cd, N-tert-butyl-1-(2-(furan-3-yl)phenyl)-8-isopropoxy-7-methoxy-N-methyl-4,5-dihydro-1H-benzo[g]indazole-3-carboxamide] | 5.00 to 6.00 |
| COc1cc2c(cc1OC(C)C)-c1c(c(C(=O)N(C)C(C)(C)C)nn1-c1ccccc1C)CC2 [Example 10ca, N-tert-butyl-8-isopropoxy-7-methoxy-N-methyl-1-o-tolyl-4,5-dihydro-1H-benzo[g]lindazole-3-carboxamide] | 5.00 to 6.00 |
| COc1cc2c(cc1OC(C)C)-c1c(c(C(=O)N(C)C(C)(C)C)nn1-c1ccccc1F)CC2 [Example 10cb, N-tert-butyl-1-(2-fluorophenyl)-8-isopropoxy-7-methoxy-N-methyl-4,5-dihydro-1H-benzo[g]indazole-3-carboxamide] | 6.00 to 7.00 |
| COc1cc2c(cc1OC(C)C)-c1c(c(C(=O)N(C)C(C)(C)C)nn1-c1ccccc1OC)CC2 [Example 10cc, N-tert-butyl-8-isopropoxy-7-methoxy-1-(2-methoxyphenyl)-N-methyl-4,5-dihydro-1H-benzo[g]indazole-3-carboxamide] | 5.00 to 6.00 |
| COc1cc2c(cc1-c1ncco1)-c1c(c(C(=O)N(C)C(C)(C)C)nn1-c1ccccc1Cl)CC2 [Example 11ga, N-tert-butyl-1-(2-chlorophenyl)-7-methoxy-N-methyl-8-(oxazol-2-yl)-4,5-dihydro-1H-benzo[g]lindazole-3-carboxamide] | 5.00 to 6.00 |
| COc1cc2c(cc1NC(=O)c1cocn1)-c1c(c(C(=O)N(C)C(C)(C)C)nn1-c1cccc(C)c1)CC2 [Example 12g] | 5.00 to 6.00 |
| COc1cc2c(cc1NS(C)(=O)=O)-c1c(c(C(=O)N(C)C(C)(C)C)nn1-c1cccc(C)c1)CC2 [Example 12h] | 5.00 to 6.00 |
| COc1cc2c(cc1NC(=O)CN1CCN(C)CC1)-c1c(c(C(=O)N(C)C(C)(C)C)nn1-c1cccc(C)c1)CC2 [Example 12ja, N-tert-butyl-7-methoxy-N-methyl-8-(2-(4-methylpiperazin-1-yl)acetamido)-1-m-tolyl-4,5-dihydro-1H-benzo[g]indazole-3-carboxamide] | 5.00 to 6.00 |
